ChEMBL document CHEMBL4483862, “Open-source discovery of chemical leads for next-generation chemoprotective antimalarials” (2018)

System: Plasmodium berghei
Test: Luciferase/luciferin-expressing antifolate-resistant parasites were used to infect a culture of HepG2 cells that were pre-incubated with compounds. Infected hepatocytes emit light due to the luciferase reaction. Assay results are presented as the percent inhibition of light emission compared to control. […]
Assay type: functional
Conditions: sporozoite; for IC90: read-out: LUCIFERASE INFECTION ASSAY - IC90
[1] = read-out: LUCIFERASE INFECTION ASSAY - IC50

| SMILES | IC50 [1] | IC90 | other results |
| --- | --- | --- | --- |
| CC(C)c1ccc(N/N=C/c2cc(C#Cc3ccccc3)cs2)cc1 | > 9.58 µM | > 9.58 µM | – |
| Cc1ccc(NC(=O)COc2ccc(CCO)cc2-n2nc3ccccc3n2)cc1C | > 10 µM | > 10 µM | – |
| CSc1ccccc1N1C(=O)C=CC1=O | – | 10.8 µM | IC50 (FFLUC_HILL_SLOPE 3.57, FFLUC_R_SQUARED 0.584, HEPG2TOX_HILL_SLOPE 8.7, HEPG2TOX_R_SQUARED 0.127, PBLUC_HILL_SLOPE 6.46, PBLUC_R_SQUARED 0.572, read-out: LUCIFERASE INFECTION ASSAY - IC50): 7.7 µM |
| CC(C)Cc1nc2oc3c(NCC4CCCO4)ncnc3c2c2c1CCC2 (stereo unspecified) | – | 4.52 µM | IC50 (PBLUC_HILL_SLOPE 12.2, PBLUC_R_SQUARED 0.0912, read-out: LUCIFERASE INFECTION ASSAY - IC50): 3.77 µM |
| Cc1cccc(-c2nc(-c3cc(C)n(-c4nnc[nH]4)c3C)cs2)c1 | 9.67 µM | > 10 µM | – |
| CC(Sc1nc2ccccc2c(=O)n1C)C(=O)Nc1cc([N+](=O)[O-])ccc1Cl (stereo unspecified) | – | > 10 µM | IC50 (HEPG2TOX_HILL_SLOPE 7.72, HEPG2TOX_R_SQUARED 0.92, read-out: LUCIFERASE INFECTION ASSAY - IC50): > 10 µM |
| COc1ccccc1CN1CCN2C(=O)[C@@H](Cc3ccc(O)cc3)NC(=O)[C@H]2C1 | – | > 8.34 µM | IC50 (PBLUC_HILL_SLOPE 1.8, PBLUC_R_SQUARED 0.229, read-out: LUCIFERASE INFECTION ASSAY - IC50): 4.45 µM |
| CN(C)CCCOc1ccc(-c2cn3c(-c4cccc(OC(F)(F)F)c4)cnc3cn2)cn1 | – | > 7.21 µM | IC50 (PBLUC_HILL_SLOPE 15.4, PBLUC_R_SQUARED 0.0337, read-out: LUCIFERASE INFECTION ASSAY - IC50): 6.95 µM |
| CC(=O)c1cccc(-c2cc3c(cn2)nc(NCc2ccccc2F)n3C)c1 | – | > 10 µM | IC50 (HEPG2TOX_HILL_SLOPE 11.4, HEPG2TOX_R_SQUARED 0.658, PBLUC_HILL_SLOPE 2.4, PBLUC_R_SQUARED 0.114, read-out: LUCIFERASE INFECTION ASSAY - IC50): 6.65 µM |
| O=c1c2ccc(Cl)cc2nc(-c2cccc(C(F)(F)F)c2)n1O | > 9.69 µM | > 9.69 µM | – |
| O=C(NNC(=S)Nc1cc(C(F)(F)F)cc(C(F)(F)F)c1)c1cccnc1Oc1ccccc1 | > 6.59 µM | > 6.59 µM | – |
| CC1(C)CC(=O)C=C(Nc2ccc(Oc3ccccc3)cc2)C1 | – | > 10.7 µM | IC50 (PBLUC_HILL_SLOPE 1.19, PBLUC_R_SQUARED 0.428, read-out: LUCIFERASE INFECTION ASSAY - IC50): 2.19 µM |
| CC(C(=O)Nc1ccc(O)cc1)c1ccc2c(c1)[nH]c1ccc(Cl)cc12 (stereo unspecified) | > 9.05 µM | > 9.05 µM | – |
| Cn1c(=O)n(C2CCCCC2)c(=O)c2ccccc21 | > 12.8 µM | > 12.8 µM | – |
| CC(C)(C)c1ccc(CC(=O)N2CCC2(C)C(=O)Nc2cnc3ccccc3c2)cc1 (stereo unspecified) | – | 3.72 µM | IC50 (HEPG2TOX_HILL_SLOPE 0.158, HEPG2TOX_R_SQUARED 0.645, PBLUC_HILL_SLOPE 10.5, PBLUC_R_SQUARED 0.686, read-out: LUCIFERASE INFECTION ASSAY - IC50): 3.02 µM |
| O=C1C(=O)N(CCN2CCCCC2)c2ccc(F)cc21 | > 11.9 µM | > 11.9 µM | – |
| COc1cc([N+](=O)[O-])ccc1NC(=O)COC(=O)c1c(C)nn(Cc2ccc(Cl)cc2Cl)c1Cl | – | > 10 µM | IC50 (FFLUC_HILL_SLOPE 15, FFLUC_R_SQUARED 0.28, read-out: LUCIFERASE INFECTION ASSAY - IC50): > 10 µM |
| Cc1noc2nc(C3CC3)cc(C(=O)Nc3cccc(C(F)(F)F)c3)c12 | – | 1.12 µM | IC50 (PBLUC_HILL_SLOPE 17.7, PBLUC_R_SQUARED 0.604, read-out: LUCIFERASE INFECTION ASSAY - IC50): 0.99 µM |
| COc1ccc(OC)c(CCNc2nc3cnc(-c4cccc(OC(F)(F)F)c4)cc3n2C)c1 | – | 4.72 µM | IC50 (HEPG2TOX_HILL_SLOPE 4.6, HEPG2TOX_R_SQUARED 0.893, PBLUC_HILL_SLOPE 3.53, PBLUC_R_SQUARED 0.694, read-out: LUCIFERASE INFECTION ASSAY - IC50): 2.53 µM |
| Cc1ccc(N2CC(C(=O)Nc3cc(C4CC4)n[nH]3)CC2=O)cc1 (stereo unspecified) | – | 2.23 µM | IC50 (HEPG2TOX_HILL_SLOPE 2.65, HEPG2TOX_R_SQUARED 0.943, PBLUC_HILL_SLOPE 2.62, PBLUC_R_SQUARED 0.892, read-out: LUCIFERASE INFECTION ASSAY - IC50): 0.963 µM |
| CCCCN(Cc1nc(=O)c2ccccc2[nH]1)C(=O)c1cc2c(F)cccc2s1 | – | > 10 µM | IC50 (HEPG2TOX_HILL_SLOPE 1.1, HEPG2TOX_R_SQUARED 0.0883, read-out: LUCIFERASE INFECTION ASSAY - IC50): > 10 µM |
| Cc1ccc(F)c(Nc2ncnc3sccc23)c1 | > 10 µM | > 10 µM | – |

| SMILES | IC50 [1] | IC90 | other results |
| --- | --- | --- | --- |
| COc1ccc(-c2nonc2NC(=O)c2oc3ccc(F)cc3c2C)cc1 | – | 1.27 µM | IC50 (HEPG2TOX_HILL_SLOPE 1.77, HEPG2TOX_R_SQUARED 0.888, PBLUC_HILL_SLOPE 11.3, PBLUC_R_SQUARED 0.0148, read-out: LUCIFERASE INFECTION ASSAY - IC50): 1.05 µM |
| Cc1cccc(C(=O)Nc2nc3ccccn3c2C(=O)NC(C)C)c1 | – | > 9.81 µM | IC50 (HEPG2TOX_HILL_SLOPE 2.5, HEPG2TOX_R_SQUARED 0.601, PBLUC_HILL_SLOPE 2.39, PBLUC_R_SQUARED 0.0938, read-out: LUCIFERASE INFECTION ASSAY - IC50): 6.28 µM |
| O=c1ccn(-c2ccc(Cl)cc2)nc1-c1ccnc(-c2ccccc2)n1 | > 9.15 µM | > 9.15 µM | – |
| O=C(CCc1nc(=O)c2ccccc2[nH]1)OC(C(=O)c1c[nH]c2ccccc12)c1ccccc1 (stereo unspecified) | > 10 µM | > 10 µM | – |
| Cc1cc(/C=C2\SC(NC3CCCCC3)=NC2=O)c(C)n1-c1ccc(Cl)c(C(F)(F)F)c1 | – | 9.71 µM | IC50 (FFLUC_HILL_SLOPE 17.5, FFLUC_R_SQUARED 0.757, PBLUC_HILL_SLOPE 2.43, PBLUC_R_SQUARED 0.441, read-out: LUCIFERASE INFECTION ASSAY - IC50): 3.93 µM |
| CCOc1ccc(-n2c(SC(C)C(=O)c3ccc(C(C)C)cc3C(C)C)nnc2-c2c[nH]c3ccccc23)cc1 (stereo unspecified) | – | > 10 µM | IC50 (FFLUC_HILL_SLOPE 12.2, FFLUC_R_SQUARED 0.489, PBLUC_HILL_SLOPE 1.92, PBLUC_R_SQUARED 0.281, read-out: LUCIFERASE INFECTION ASSAY - IC50): 5.8 µM |
| O=C(NCCSCc1ccc2nonc2c1)c1ccc(Cl)cc1Cl | > 8.63 µM | > 8.63 µM | – |
| COCCCNC(=S)N/N=C/c1ccc(Cl)c(Cl)c1 | > 10.3 µM | > 10.3 µM | – |
| O=C(COC(=O)Cc1ccsc1)Nc1cc(Cl)ccc1-n1cncn1 | > 10 µM | > 10 µM | – |
| Cc1cc(N2CCN(Cc3nc(=O)c4cc(Cl)ccc4[nH]3)CC2)nc(C(C)C)n1 | – | > 10 µM | IC50 (HEPG2TOX_HILL_SLOPE 8.69, HEPG2TOX_R_SQUARED 0.562, PBLUC_HILL_SLOPE 3.21, PBLUC_R_SQUARED 0.576, read-out: LUCIFERASE INFECTION ASSAY - IC50): 5.79 µM |
| Nc1c(C(=O)N2CCOCC2)sc2nc3c(cc12)CCCCC3 | – | 0.424 µM | IC50 (FFLUC_HILL_SLOPE 2.88, FFLUC_R_SQUARED 0.736, PBLUC_HILL_SLOPE 1.46, PBLUC_R_SQUARED 0.898, read-out: LUCIFERASE INFECTION ASSAY - IC50): 0.0939 µM |
| Nc1c(C(=O)Nc2cc(Cl)cc(Cl)c2)sc(Nc2ccccc2)c1C(=O)Nc1ccc(Cl)cc1 | – | > 10 µM | IC50 (FFLUC_HILL_SLOPE 1.81, FFLUC_R_SQUARED 0.586, read-out: LUCIFERASE INFECTION ASSAY - IC50): > 10 µM |
| CS(=O)(=O)N1CCCc2cc(C(=O)Nc3[nH]nc4ccccc34)ccc21 | – | > 10 µM | IC50 (PBLUC_HILL_SLOPE 1.05, PBLUC_R_SQUARED 0.487, read-out: LUCIFERASE INFECTION ASSAY - IC50): 4.21 µM |
| Cc1c(C(=O)Nc2ccc(N3CCN(C)CC3)nc2)cnn1-c1ccc(C(F)(F)F)cn1 | > 10 µM | > 10 µM | – |
| C/N=c1\scc(-c2ccc(C)c(C)c2)n1/N=C/c1ccc[nH]1 | – | > 10 µM | IC50 (FFLUC_HILL_SLOPE 1.19, FFLUC_R_SQUARED 0.95, read-out: LUCIFERASE INFECTION ASSAY - IC50): > 10 µM |
| Oc1cccc(-c2cnc3ccc(-c4cccc5ncccc45)nn23)c1 | – | > 10 µM | IC50 (HEPG2TOX_HILL_SLOPE 3.26, HEPG2TOX_R_SQUARED 0.941, PBLUC_HILL_SLOPE 1.24, PBLUC_R_SQUARED 0.528, read-out: LUCIFERASE INFECTION ASSAY - IC50): 1.84 µM |
| CC(C)(C)c1ccc(CSc2nncn2-c2ccc(OCc3ccccc3)cc2)cc1 | – | > 7.68 µM | IC50 (PBLUC_HILL_SLOPE 2.75, PBLUC_R_SQUARED 0.0661, read-out: LUCIFERASE INFECTION ASSAY - IC50): 5.39 µM |
| c1ccc(-c2ccnc3c2ccc2c(-c4ccccc4)ccnc23)cc1 | – | 1.74 µM | IC50 (HEPG2TOX_HILL_SLOPE 2.07, HEPG2TOX_R_SQUARED 0.947, PBLUC_HILL_SLOPE 9.72, PBLUC_R_SQUARED 0.861, read-out: LUCIFERASE INFECTION ASSAY - IC50): 1.39 µM |
| Cc1cc2nnc(-c3ccc(C(F)(F)F)cc3)n2[nH]1 | – | > 12.4 µM | IC50 (FFLUC_HILL_SLOPE 9.36, FFLUC_R_SQUARED 0.07, PBLUC_HILL_SLOPE 1.33, PBLUC_R_SQUARED 0.805, read-out: LUCIFERASE INFECTION ASSAY - IC50): 3.1 µM |
| COc1ccc2ccccc2c1/C=N/n1c(-c2ccc(Br)s2)cs/c1=N\c1ccc(Cl)cc1 | – | > 10 µM | IC50 (PBLUC_HILL_SLOPE 0.354, PBLUC_R_SQUARED 0.256, read-out: LUCIFERASE INFECTION ASSAY - IC50): > 10 µM |
| Cc1ccc(NS(=O)(=O)c2cccc(C(=O)OC(C)C(=O)c3cc(C)n(-c4ccc(Cl)cc4)c3C)c2)cc1 (stereo unspecified) | – | 3.6 µM | IC50 (HEPG2TOX_HILL_SLOPE 1.57, HEPG2TOX_R_SQUARED 0.97, PBLUC_HILL_SLOPE 17.7, PBLUC_R_SQUARED 0.634, read-out: LUCIFERASE INFECTION ASSAY - IC50): 3.18 µM |
